Reference: PubChem BioAssay (NCI)
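96-well plates; 48 h exposure; 5 concentrations. Endpoints by linear interpolation between flanking doses. Not reached: highest tested concentration assigned. TGI: concentration producing complete growth inhibition.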

Experiments:
Assay in all cases: NCI tumour cell line growth inhibition, 48 h
NCI-H460 lung = system: NCI-H460 lung
MCF7 breast = system: MCF7 breast
EKVX NSCLC = system: EKVX NSCLC
SW-620 colon = system: SW-620 colon
M14 melanoma = system: M14 melanoma
SF-295 CNS = system: SF-295 CNS
SN12C renal = system: SN12C renal
CAKI-1 renal = system: CAKI-1 renal
RXF 393 renal = system: RXF 393 renal
LOX IMVI melanoma = system: LOX IMVI melanoma
SNB-19 CNS = system: SNB-19 CNS
UO-31 renal = system: UO-31 renal
NCI-H522 lung = system: NCI-H522 lung
UACC-62 melanoma = system: UACC-62 melanoma
HCC-2998 colon = system: HCC-2998 colon
HOP-92 NSCLC = system: HOP-92 NSCLC
ACHN renal = system: ACHN renal
OVCAR-8 ovarian = system: OVCAR-8 ovarian
NCI-H23 lung = system: NCI-H23 lung
MALME-3M melanoma = system: MALME-3M melanoma

Row | Compound | TGI (NCI-H460 lung) | TGI (MCF7 breast) | TGI (EKVX NSCLC) | TGI (SW-620 colon) | TGI (M14 melanoma) | TGI (SF-295 CNS) | TGI (SN12C renal) | TGI (CAKI-1 renal) | TGI (RXF 393 renal) | TGI (LOX IMVI melanoma) | TGI (SNB-19 CNS) | TGI (UO-31 renal) | TGI (NCI-H522 lung) | TGI (UACC-62 melanoma) | TGI (HCC-2998 colon) | TGI (HOP-92 NSCLC) | TGI (ACHN renal) | TGI (OVCAR-8 ovarian) | TGI (NCI-H23 lung) | TGI (MALME-3M melanoma)
1 | NC(CCCCCCCCCCP(=O)(O)O)C(=O)O (centres undefined) | > 100 µM | > 100 µM | > 100 µM | > 100 µM | > 100 µM | > 100 µM | > 100 µM | > 100 µM | > 100 µM | > 100 µM | > 100 µM | > 100 µM | > 100 µM | > 100 µM | > 100 µM | > 100 µM | > 100 µM | > 100 µM | > 100 µM | 
2 | NC(N)=Nc1ccc(-c2ccc(N=C(N)N)cc2)cc1 | > 100 µM | > 100 µM | > 100 µM | > 100 µM | > 100 µM | > 100 µM | > 100 µM | > 100 µM | > 100 µM | > 100 µM | > 100 µM | > 100 µM | > 100 µM | > 100 µM | > 100 µM | > 100 µM | > 100 µM | > 100 µM | > 100 µM | 62.6 µM
3 | O=C1N(Cl)C(=O)C(c2ccc(Cl)cc2)(c2ccc(Cl)cc2)N1Cl | > 100 µM |  | > 100 µM | > 100 µM | > 100 µM | > 100 µM | > 100 µM | > 100 µM | 84.8 µM |  | > 100 µM | > 100 µM | > 100 µM |  | > 100 µM | > 100 µM | > 100 µM | > 100 µM | > 100 µM | > 100 µM
4 | N/C(=N\N=C/c1ccc(O)c(O)c1O)NO | 32.4 µM | 32.9 µM | > 100 µM | 39.1 µM |  | > 40 µM | 34.9 µM | 55.3 µM | 33.5 µM | 33.9 µM | > 100 µM | > 100 µM | 52.9 µM | 41.5 µM | 96.6 µM | > 100 µM |  | > 54.1 µM | 68.4 µM | > 100 µM
